According to US7884083B2, “Immunomodulatory compositions, methods of making, and methods of use thereof” (Dynavax Technologies Corporation, priority 2002, dated 2011):

What was measured:
[1] = system: K562 cells; assay: NK cell lytic activity of stimulated PBMCs against 51Cr-loaded K562 cells; assay type: cell-based, human; settings: 10 μg/mL IMC, 100 μg/mL PMXB, 48 hours
Protocol: IMC particulate formulations were tested for NK cell stimulatory activity. PBMCs from two donors were stimulated for 48 hours with 10 μg/mL IMC (“+ISS”) 5′-[…]-3′ (SEQ ID NO:1) with or without 100 μg/mL PMXB. The PBMCs were then assayed for lytic activity against K562 cells loaded with ^51Cr as target cells. For controls, K562 cells were cultured alone, K562 cells were lysed with Triton and K562 cells were stimulated with untreated PBMC cells. Determination of ^51CR released into culture media was used to measure the extent of target cell lysis. The presence of PMXB increased the NK cell lytic activity stimulated by the IMC alone.

[2] = system: plasmacytoind dendritic cells (PDCs) of human PBMCs; assay: Intracellular staining and FACS analysis of IFN-α production from PDCs; assay type: cell-based; settings: double-staining cells as percentage of total PBMCs, 20 μg/mL oligonucleotide, 100 μg/mL PMXB, six hours
Protocol: Intracellular staining assays and FACS analysis were used to examine IFN-α production from the plasmacytoind dendritic cells (PDCs) of human PBMCs. […] For these assays, the IMC or -ISS and the polymyxin were added separately to the PBMC cell culture which contained human serum albumin. […] After the six hours, the cells were stained with a fluorescently labeled PDC marker, anti-BCDA-2 labeled with FITC, and with anti-IFN-α labeled with PE. FACS analysis of the labeled cells was performed.

[3] = system: mouse lung cells; assay: Gene modulation in mouse lung after intranasal instillation (TAQMAN, relative cycle thresholds; Table 18); assay type: in vivo; set-up: Relative Cycle Thresholds (CTs), IFN-α2 / Relative Cycle Thresholds (CTs), BCA-1 / Relative Cycle Thresholds (CTs), IP-10 / Relative Cycle Thresholds (CTs), MIP-1b / Relative Cycle Thresholds (CTs), 12/15-lipoxg: reference not given here; settings: 6 hours after intranasal instillation
Protocol: Modulation of a variety of genes in response to immunomodulatory formulations was measured in mouse lung cells.
Particulate formulations were produced by first preparing either a 1 mg/mL +ISS, 0.4% TWEEN® 85, 0.4% oleate solution or a 20 mg/mL HSA solution, then making that solution 5 mg/ml in PMXB. The formulations were allowed to stand for 24 hours at room temperature, then dialyzed using a 10 kDa membrane. Particulate formulations and +ISS alone (50 μL dose) were administered by intranasal instillation to lightly anesthetized mice (5 mice per group). Animals were sacrificed 6 hours after administration, lung tissue was surgically removed, and cell suspensions were made by homogenization of the lung tissue. cDNA was synthesized from RNA isolated from the cell suspensions, and RNA was quantitated using TAQMAN® Technology. The particulate formulations induced significant increases in the majority of the genes tested.

[4] = system: human peripheral blood lymphocytes (PBMCs); assay: hPBMC assay: IFN-γ and IFN-α production by human PBMCs (ELISA); assay type: cell-based
[5] = Effector:Target ratio 12.5:1, donor 2
[6] = Donor 198, no Time given, 20 μg/ml oligonucleotide
[7] = Donor 199, no Time given, 20 μg/ml oligonucleotide
[8] = Donor 28212, Controls, 20 μg/ml oligonucleotide, 100 μg/ml polymyxin
[9] = Donor 28213, Controls, 20 μg/ml oligonucleotide, 100 μg/ml polymyxin
[10] = Donor 28232, no Time given, 20 μg/ml oligonucleotide, 100 μg/ml polymyxin
[11] = Donor 28233, no Time given, 20 μg/ml oligonucleotide, 100 μg/ml polymyxin
[12] = Donor # 9, 20 μg/ml oligonucleotide, 100 μg/ml PMXB, 24 hours
[13] = Donor # 37, 20 μg/ml oligonucleotide, 100 μg/ml PMXB, 24 hours
[14] = Donor # 86, 20 μg/ml oligonucleotide, 100 μg/ml PMXB, 24 hours
[15] = Donor # 87, 20 μg/ml oligonucleotide, 100 μg/ml PMXB, 24 hours
[16] = Donor # 88, 20 μg/ml oligonucleotide, 100 μg/ml PMXB, 24 hours
[17] = Donor # 89, 20 μg/ml oligonucleotide, 100 μg/ml PMXB, 24 hours
[18] = Donor # 90, 20 μg/ml oligonucleotide, 100 μg/ml PMXB, 24 hours
[19] = Donor # 91, 20 μg/ml oligonucleotide, 100 μg/ml PMXB, 24 hours
[20] = Donor # 94, 20 μg/ml oligonucleotide, 100 μg/ml PMXB, 24 hours
[21] = Donor # 95, 20 μg/ml oligonucleotide, 100 μg/ml PMXB, 24 hours
[22] = Mean (Table 4), Controls, 20 μg/ml oligonucleotide, 100 μg/ml polymyxin
[23] = Mean (Table 5), no Time given, 20 μg/ml oligonucleotide
[24] = Mean (Table 6), no Time given, 20 μg/ml oligonucleotide, 100 μg/ml polymyxin
[25] = Mean of donors (Table 2), 20 μg/ml oligonucleotide, 100 μg/ml PMXB, 24 hours
[26] = Table 3, Donor 1, PMXB 100 μg/ml, AMTB 10 μg/ml, serum containing medium
[27] = Table 3, Donor 2, PMXB 100 μg/ml, AMTB 10 μg/ml, serum containing medium
[28] = Table 3, Mean, PMXB 100 μg/ml, AMTB 10 μg/ml, serum containing medium
[29] = Table 9, Mean, 20 μg/ml oligonucleotide, 100 μg/ml polymyxin
[30] = Table 9, donor 149, 20 μg/ml oligonucleotide, 100 μg/ml polymyxin
[31] = Table 9, donor 208, 20 μg/ml oligonucleotide, 100 μg/ml polymyxin
[32] = Table 10, donor 1, 20 μg/ml oligonucleotide, 100 μg/ml polymyxin derivative added separately, 24 hours
[33] = Table 10, donor 2, 20 μg/ml oligonucleotide, 100 μg/ml polymyxin derivative added separately, 24 hours
[34] = Table 10, donor 3, 20 μg/ml oligonucleotide, 100 μg/ml polymyxin derivative added separately, 24 hours
[35] = Table 10, donor 4, 20 μg/ml oligonucleotide, 100 μg/ml polymyxin derivative added separately, 24 hours
[36] = Table 10, donor 5, 20 μg/ml oligonucleotide, 100 μg/ml polymyxin derivative added separately, 24 hours
[37] = Table 10, donor 6, 20 μg/ml oligonucleotide, 100 μg/ml polymyxin derivative added separately, 24 hours
[38] = Table 10, mean of 6 donors, 20 μg/ml oligonucleotide, 100 μg/ml polymyxin derivative added separately, 24 hours

5′-TGACTGTGAACGTTCGAGATGA-3′ [+ISS]
51Cr released from K562 target cells, cpm1 ([1]; Effector:Target ratio 6:1, donor 1): 6935 cpm | 51Cr released from K562 target cells, cpm2 [1, 5]: 8370 cpm | 51Cr released from K562 target cells, mean [1, 5]: 8162 cpm | 51Cr released from K562 target cells, cpm3 ([1]; Effector:Target ratio 25:1, donor 1): 8048 cpm | BCDA-2/IFN-α d.p. % ([2]; donor 1): 0.01% | BCDA-2/IFN-α d.p. % ([2]; donor 2): 0.03% | BCDA-2/IFN-α d.p. % ([2]; mean): 0.02% | Relative Cycle Thresholds (CTs), 12/15-lipoxg ([3]; gene 12/15-lipoxg): 65 | Relative Cycle Thresholds (CTs), BCA-1 ([3]; gene BCA-1): 5026 | Relative Cycle Thresholds (CTs), CD80 ([3]; gene CD80): 205 | Relative Cycle Thresholds (CTs), CD86 ([3]; gene CD86): 103 | Relative Cycle Thresholds (CTs), COX-1 ([3]; gene COX-1): 2145 | Relative Cycle Thresholds (CTs), COX-2 ([3]; gene COX-2): 446 | Relative Cycle Thresholds (CTs), Eotaxin ([3]; gene Eotaxin): 273 | Relative Cycle Thresholds (CTs), G-CSF ([3]; gene G-CSF): 92 | Relative Cycle Thresholds (CTs), IFN-α2 ([3]; gene IFN-α2): 3 | Relative Cycle Thresholds (CTs), IFN-γ ([3]; gene IFN-γ): 25 | Relative Cycle Thresholds (CTs), IL-1a ([3]; gene IL-1a): 7523 | Relative Cycle Thresholds (CTs), IL-1b ([3]; gene IL-1b): 1643 | Relative Cycle Thresholds (CTs), IL-6 ([3]; gene IL-6): 755 | Relative Cycle Thresholds (CTs), IL-10 ([3]; gene IL-10): 4 | Relative Cycle Thresholds (CTs), IL-12p40 ([3]; gene IL-12p40): 6 | Relative Cycle Thresholds (CTs), IL-23 ([3]; gene IL-23): 266 | Relative Cycle Thresholds (CTs), IP-10 ([3]; gene IP-10): 23436 | Relative Cycle Thresholds (CTs), LPTN ([3]; gene LPTN): 976 | Relative Cycle Thresholds (CTs), MCP-1 ([3]; gene MCP-1): 5265 | Relative Cycle Thresholds (CTs), MCP-3 ([3]; gene MCP-3): 3905 | Relative Cycle Thresholds (CTs), MDC ([3]; gene MDC): 2869 | Relative Cycle Thresholds (CTs), MIG ([3]; gene MIG): 3411 | Relative Cycle Thresholds (CTs), MIP-1a ([3]; gene MIP-1a): 6156 | Relative Cycle Thresholds (CTs), MIP-1b ([3]; gene MIP-1b): 12918 | Relative Cycle Thresholds (CTs), MIP-2 ([3]; gene MIP-2): 1792 | Relative Cycle Thresholds (CTs), MIP-3a ([3]; gene MIP-3a): 885 | Relative Cycle Thresholds (CTs), MIP-3b ([3]; gene MIP-3b): 2030 | Relative Cycle Thresholds (CTs), MMP-8 ([3]; gene MMP-8): 1505 | Relative Cycle Thresholds (CTs), NOS2 ([3]; gene NOS2): 308 | Relative Cycle Thresholds (CTs), TARC ([3]; gene TARC): 1505 | Relative Cycle Thresholds (CTs), TCA-3 ([3]; gene TCA-3): 16 | Relative Cycle Thresholds (CTs), TNF-α ([3]; gene TNF-α): 7170 | IFN-α [4, 6]: 224 pg/mL | IFN-γ [4, 6]: 10 pg/mL | IFN-α [4, 7]: 277 pg/mL | IFN-γ [4, 7]: 167 pg/mL | IFN-α [4, 8]: 135 pg/mL | IFN-γ [4, 8]: 5 pg/mL | IFN-α [4, 9]: 109 pg/mL | IFN-γ [4, 9]: 17 pg/mL | IFN-Υ [4, 10]: 276 pg/mL | IFN-α [4, 10]: 9 pg/mL | IFN-Υ [4, 11]: 20 pg/mL | IFN-α [4, 11]: 103 pg/mL | IFN-α [4, 12]: 131 pg/mL | IFN-γ [4, 12]: 20 pg/mL | IFN-γ ([4]; Donor # 20, 20 μg/ml oligonucleotide, 100 μg/ml PMXB, 24 hours): 291 pg/mL | IFN-α [4, 13]: 70 pg/mL | IFN-γ [4, 13]: 15 pg/mL | IFN-γ ([4]; Donor # 75, 20 μg/ml oligonucleotide, 100 μg/ml PMXB, 24 hours): 22 pg/mL | IFN-α [4, 14]: 358 pg/mL | IFN-γ [4, 14]: 182 pg/mL | IFN-α [4, 15]: 212 pg/mL | IFN-γ [4, 15]: 341 pg/mL | IFN-α [4, 16]: 264 pg/mL | IFN-γ [4, 16]: 367 pg/mL | IFN-α [4, 17]: 207 pg/mL | IFN-γ [4, 17]: 100 pg/mL | IFN-α [4, 18]: 119 pg/mL | IFN-γ [4, 18]: 13 pg/mL | IFN-α [4, 19]: 0 pg/mL | IFN-γ [4, 19]: 27 pg/mL | IFN-α [4, 20]: 274 pg/mL | IFN-γ [4, 20]: 30 pg/mL | IFN-α [4, 21]: 26 pg/mL | IFN-γ [4, 21]: 6 pg/mL | IFN-γ ([4]; Donor # 96, 20 μg/ml oligonucleotide, 100 μg/ml PMXB, 24 hours): 49 pg/mL | IFN-γ ([4]; Donor # 97, 20 μg/ml oligonucleotide, 100 μg/ml PMXB, 24 hours): 23 pg/mL | IFN-α [4, 22]: 122 pg/mL | IFN-γ [4, 22]: 11 pg/mL | IFN-α [4, 23]: 250 pg/mL | IFN-γ [4, 23]: 88 pg/mL | IFN-Υ [4, 24]: 148 pg/mL | IFN-α [4, 24]: 56 pg/mL | IFN-α [4, 25]: 166 pg/mL | IFN-γ [4, 25]: 106 pg/mL | IFN-α [4, 26]: 11 pg/mL | IFN-γ [4, 26]: 29 pg/mL | IFN-α [4, 27]: 2 pg/mL | IFN-γ [4, 27]: 0 pg/mL | IFN-α [4, 28]: 6 pg/mL | IFN-γ [4, 28]: 15 pg/mL | IFN-Υ [4, 29]: 76 pg/mL | IFN-α [4, 29]: 41 pg/mL | IFN-Υ [4, 30]: 78 pg/mL | IFN-α [4, 30]: 59 pg/mL | IFN-Υ ([4]; Table 9, donor 206, 20 μg/ml oligonucleotide, 100 μg/ml polymyxin): 5 pg/mL | IFN-Υ [4, 31]: 146 pg/mL | IFN-α [4, 31]: 32 pg/mL | IFN-α ([4]; Table 9, donor 209, 20 μg/ml oligonucleotide, 100 μg/ml polymyxin): 32 pg/mL | IFN-α [4, 32]: 263 pg/mL | IFN-γ [4, 32]: 13 pg/mL | IFN-α [4, 33]: 225 pg/mL | IFN-γ [4, 33]: 3 pg/mL | IFN-α [4, 34]: 52 pg/mL | IFN-γ [4, 34]: 2 pg/mL | IFN-α [4, 35]: 52 pg/mL | IFN-γ [4, 35]: 2 pg/mL | IFN-α [4, 36]: 218 pg/mL | IFN-γ [4, 36]: 99 pg/mL | IFN-α [4, 37]: 26 pg/mL | IFN-γ [4, 37]: 14 pg/mL | IFN-α [4, 38]: 139 pg/mL | IFN-γ [4, 38]: 22 pg/mL
